Data taken from US9850225B2, “Compounds useful as immunomodulators” (BRISTOL-MYERS SQUIBB COMPANY, priority 2014, dated 2017).

The molecules below were run against PD-1/PD-L1 interaction (PD-1-Ig / PD-L1-His) (Homo sapiens (Human), UniProt Q9NZQ7) (assay: PD-1/PD-L1 Homogenous Time-Resolved Fluorescence (HTRF) binding assay). Conditions: PD-1/PD-L1 HTRF binding assay; numeric value; read-out: Range or IC50.
Chain of PD-1/PD-L1 interaction (PD-1-Ig / PD-L1-His) (Q9NZQ7 other isoform, or with tags, fused parts or gaps): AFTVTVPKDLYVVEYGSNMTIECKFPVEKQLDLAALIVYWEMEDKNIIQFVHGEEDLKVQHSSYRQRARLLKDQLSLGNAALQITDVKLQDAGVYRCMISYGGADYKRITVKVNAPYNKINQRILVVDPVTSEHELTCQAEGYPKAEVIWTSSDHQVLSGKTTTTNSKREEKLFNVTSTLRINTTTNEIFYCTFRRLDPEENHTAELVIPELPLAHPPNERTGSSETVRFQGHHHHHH
Method in brief: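 HTRF detection used 1 nM europium-cryptate anti-Ig and 20 nM APC anti-His. Compounds first saw 10 nM PD-L1-His for 15 min, and 20 nM PD-1-Ig was then added for another 15 min. Buffer was dPBS plus 0.1% BSA and 0.05% Tween-20. All concentrations are final.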
Cc1c(COc2cc(OCc3cncc(S(C)(=O)=O)c3)c(CO)cc2Cl)cccc1-c1ccc2c(c1)OCCO2 [Example 3013, (5-chloro-4-{[3-(2,3-dihydro-1,4-benzodioxin-6-yl)-2-methylphenyl]methoxy}-2-[(5-methanesulfonylpyridin-3-yl)methoxy]phenyl)methanol] gave an IC50 of 80 nM.
Cc1c(COc2cc(OCc3cccc(C#N)c3)c(CNC(CO)(Cc3ccccc3)C(=O)O)cc2Cl)cccc1-c1ccc2c(c1)OCCO2 (stereo not shown) [Example 1218, 2-benzyl-2-((5-chloro-2-((3-cyanobenzyl)oxy)-4-((3-(2,3-dihydrobenzo[b][1,4]dioxin-6-yl)-2-methylbenzyl)oxy)benzyl)amino)-3-hydroxypropanoic acid] was tested, and the IC50 was 10.1 nM.

Same assay, conditions: PD-1/PD-L1 HTRF binding assay; value given as range class; read-out: Range or IC50
With Cc1c(COc2cc(OCc3cccc(C#N)c3)c(CNC(CC(F)(F)F)C(=O)O)cc2Cl)cccc1-c1ccc2c(c1)OCCO2 (stereo not shown) [Example 1216, 2-((5-chloro-2-((3-cyanobenzyl)oxy)-4-((3-(2,3-dihydrobenzo[b][1,4]dioxin-6-yl)-2-methylbenzyl)oxy)benzyl)amino)-4,4,4-trifluorobutanoic acid] the IC50 was 100 to 20000 nM.
CC(=O)NCCNCc1ccc(OCc2cccc(-c3ccccc3)c2C)cc1OCc1ccccc1OC(F)(F)F [Example 1087, N-(2-((4-((2-methyl-[1,1′-biphenyl]-3-yl)methoxy)-2-((2-(trifluoromethoxy)benzyl)oxy)benzyl)amino)ethyl)acetamide] was tested, and the IC50 was 100 to 20000 nM.
Cc1c(COc2ccc(CN[C@H](CO)CC(=O)O)c(OCc3cccc(C#N)c3)c2)cccc1-c1ccccc1 [Example 1021, (S)-3-((2-((3-cyanobenzyl)oxy)-4-((2-methyl-[1,1′-biphenyl]-3-yl)methoxy)benzyl)amino)-4-hydroxybutanoic acid] showed an IC50 of 0.6 to 10 nM.
With Cc1cc(CN[C@@H](CO)C(=O)O)c(OCc2cccnc2)cc1OCc1cccc(-c2ccc3c(c2)OCCO3)c1C [Example 1277, (S)-2-((4-((3-(2,3-dihydrobenzo[b][1,4]dioxin-6-yl)-2-methylbenzyl)oxy)-5-methyl-2-(pyridin-3-ylmethoxy)benzyl)amino)-3-hydroxypropanoic acid] the IC50 was 0.6 to 10 nM.
In the case of Cc1c(COc2ccc(CN[C@H](C(=O)O)[C@H](C)O)c(OCc3cccc(C#N)c3)c2)cccc1-c1ccccc1 [Example 1012, (2S,3S)-2-((2-((3-cyanobenzyl)oxy)-4-((2-methyl-[1,1′-biphenyl]-3-yl)methoxy)benzyl)amino)-3-hydroxybutanoic acid], the IC50 is reported as 10 to 100 nM.
In the case of Cc1c(COc2cc(OCc3cccc(S(C)(=O)=O)c3)c(C=O)cc2Cl)cccc1-c1ccc2c(c1)OCCO2 [Example 3020, 5-chloro-4-((3-(2,3-dihydrobenzo[b][1,4]dioxin-6-yl)-2-methylbenzyl)oxy)-2-((3-(methylsulfonyl)benzyl)oxy)benzaldehyde], the IC50 is reported as 100 to 20000 nM.
Molecule Cc1c(COc2cc(OCc3cncc(S(C)(=O)=O)c3)c(CN[C@@](C)(CO)C(=O)O)cc2Cl)cccc1-c1ccc2c(c1)OCCO2 [Example 3012, (S)-2-((5-chloro-4-((3-(2,3-dihydrobenzo[b][1,4]dioxin-6-yl)-2-methylbenzyl)oxy)-2-((5-(methylsulfonyl)pyridin-3-yl)methoxy)benzyl)amino)-3-hydroxy-2-methylpropanoic acid] has an IC50 of 0.6 to 10 nM.
Cc1c(COc2cc(OCc3cccc(C#N)c3)c(CN[C@H](Cc3cn(Cc4ccccc4)cn3)C(=O)O)cc2Cl)cccc1-c1ccc2c(c1)OCCO2 [Example 1228, (R)-3-(1-benzyl-1H-imidazol-4-yl)-2-((5-chloro-2-((3-cyanobenzyl)oxy)-4-((3-(2,3-dihydrobenzo[b][1,4]dioxin-6-yl)-2-methylbenzyl)oxy)benzyl)amino)propanoic acid] was tested, and the IC50 was 10 to 100 nM.
Cc1cc(CN[C@@](C)(CO)C(=O)O)c(OCc2cccc(C#N)c2)cc1OCc1cccc(-c2ccc3c(c2)OCCO3)c1C [Example 1267, (S)-2-((2-((3-cyanobenzyl)oxy)-4-((3-(2,3-dihydrobenzo[b][1,4]dioxin-6-yl)-2-methylbenzyl)oxy)-5-methylbenzyl)amino)-3-hydroxy-2-methylpropanoic acid] was tested, and the IC50 was 0.6 to 10 nM.
With CC(=O)NCCNCc1ccc(OCc2cccc(-c3ccccc3)c2C)cc1OCc1ccc2cn[nH]c2c1 [Example 1102, N-(2-((2-((1H-indazol-6-yl)methoxy)-4-((2-methyl-[1,1′-biphenyl]-3-yl)methoxy)benzyl)amino)ethyl)acetamide] the IC50 was 100 to 20000 nM.
CC(=O)NCCNCc1ccc(OCc2cccc(-c3ccc4c(c3)OCCO4)c2C)c(Cl)c1OCc1cccc(C#N)c1 [Example 1237, N-(2-((3-chloro-2-((3-cyanobenzyl)oxy)-4-((3-(2,3-dihydrobenzo[b][1,4]dioxin-6-yl)-2-methylbenzyl)oxy)benzyl)amino)ethyl)acetamide] gave an IC50 of 100 to 20000 nM.
In the case of CC(=O)NCCNCc1ccc(OCc2cccc(-c3ccccc3)c2C)cc1OCc1ccc(F)c(C#N)c1 [Example 1114, N-(2-((2-((3-cyano-4-fluorobenzyl)oxy)-4-((2-methyl-[1,1′-biphenyl]-3-yl)methoxy)benzyl)amino)ethyl)acetamide], the IC50 is reported as 10 to 100 nM.
CC(=O)NCCNCc1ccc(OCc2cccc(-c3ccccc3)c2C)cc1OCc1ccc(C)cc1 [Example 1047, N-(2-((4-((2-methyl-[1,1′-biphenyl]-3-yl)methoxy)-2-((4-methylbenzyl)oxy)benzyl)amino)ethyl)acetamide] gave an IC50 of 100 to 20000 nM.
Cc1c(COc2cc(OCc3cccc(C#N)c3)c(CN[C@H](CC(=O)O)C(=O)O)cc2Cl)cccc1-c1ccc2c(c1)OCCO2 [Example 1175, (R)-2-((5-chloro-2-((3-cyanobenzyl)oxy)-4-((3-(2,3-dihydrobenzo[b][1,4]dioxin-6-yl)-2-methylbenzyl)oxy)benzyl)amino)succinic acid] was tested, and the IC50 was 10 to 100 nM.
N#Cc1cccc(COc2cc(OCc3cccc(-c4ccc5c(c4)OCCO5)c3C#N)c(Br)cc2CN2CCCC[C@H]2C(=O)O)c1 [Example 1313, (S)-1-(5-bromo-4-((2-cyano-3-(2,3-dihydrobenzo[b][1,4]dioxin-6-yl)benzyl)oxy)-2-((3-cyanobenzyl)oxy)benzyl)piperidine-2-carboxylic acid] showed an IC50 of 0.6 to 10 nM.
Cc1c(COc2cc(OCc3cccc(C#N)c3)c(CNC(Cc3cn(C)c4ccccc34)C(=O)O)cc2Cl)cccc1-c1ccc2c(c1)OCCO2 (stereo not shown) [Example 1168, 2-((5-chloro-2-((3-cyanobenzyl)oxy)-4-((3-(2,3-dihydrobenzo[b][1,4]dioxin-6-yl)-2-methylbenzyl)oxy)benzyl)amino)-3-(1-methyl-1H-indol-3-yl)propanoic acid] showed an IC50 of 100 to 20000 nM.
Molecule CC(=O)NCCNCc1ccc(OCc2cccc(-c3ccc4c(c3)OCCO4)c2Cl)cc1OCc1cccc(C#N)c1 [Example 1150, N-(2-(4-(2-chloro-3-(2,3-dihydrobenzo[b][1,4]dioxin-6-yl)benzyloxy)-2-(3-cyanobenzyloxy)benzylamino)ethyl)acetamide] has an IC50 of 10 to 100 nM.
CC(=O)NCCNCc1ccc(OCc2cccc(-c3ccccc3)c2C)cc1OCc1ccc([N+](=O)[O-])cc1 [Example 1058, N-(2-((4-((2-methyl-[1,1′-biphenyl]-3-yl)methoxy)-2-((4-nitrobenzyl)oxy)benzyl)amino)ethyl)acetamide] was tested, and the IC50 was 100 to 20000 nM.
COc1cc(OCc2cccc(-c3ccccc3)c2C)cc(OCc2cccc(C#N)c2)c1CN[C@H](CO)C(=O)O [Example 1134, (R)-2-((2-((3-cyanobenzyl)oxy)-6-methoxy-4-((2-methyl-[1,1′-biphenyl]-3-yl)methoxy)benzyl)amino)-3-hydroxypropanoic acid] gave an IC50 of 0.6 to 10 nM.
Work on CC(=O)NCCNCc1cc(C)c(OCc2cccc(-c3ccc4c(c3)OCCO4)c2C)cc1OCc1cccnc1 [Example 1276, N-(2-((4-((3-(2,3-dihydrobenzo[b][1,4]dioxin-6-yl)-2-methylbenzyl)oxy)-5-methyl-2-(pyridin-3-ylmethoxy)benzyl)amino)ethyl)acetamide] yielded an IC50 of 0.6 to 10 nM.
Cc1c(COc2cc(OCc3cccc(C#N)c3)c(CNC(Cc3ccccc3O)C(=O)O)cc2Cl)cccc1-c1ccc2c(c1)OCCO2 (stereo not shown) [Example 1181, 2-((5-chloro-2-((3-cyanobenzyl)oxy)-4-((3-(2,3-dihydrobenzo[b][1,4]dioxin-6-yl)-2-methylbenzyl)oxy)benzyl)amino)-3-(2-hydroxyphenyl)propanoic acid] was tested, and the IC50 was 10 to 100 nM.
Molecule CC(=O)NCCNCc1ccc(OCc2cccc(-c3ccccc3)c2C)cc1OCc1ccncn1 [Example 1100, N-(2-((4-((2-methyl-[1,1′-biphenyl]-3-yl)methoxy)-2-(pyrimidin-4-ylmethoxy)benzyl)amino)ethyl)acetamide] has an IC50 of 100 to 20000 nM.
For Cc1c(COc2ccc(CN[C@](C)(CO)C(=O)O)c(OCc3cccc(C#N)c3)c2)cccc1-c1ccc2c(c1)OCCO2 [Example 1127, (R)-2-((2-((3-cyanobenzyl)oxy)-4-((3-(2,3-dihydrobenzo[b][1,4]dioxin-6-yl)-2-methylbenzyl)oxy)benzyl)amino)-3-hydroxy-2-methylpropanoic acid], the IC50 was 0.6 to 10 nM.
Work on COc1cc(COc2cc(OCc3cccc(-c4ccc5c(c4)OCCO5)c3C)c(Cl)cc2CO)ccn1 [Example 3016, (5-chloro-4-{[3-(2,3-dihydro-1,4-benzodioxin-6-yl)-2-methylphenyl]methoxy}-2-[(2-methoxypyridin-4-yl)methoxy]phenyl)methanol] yielded an IC50 of 100 to 20000 nM.
Molecule Cc1c(COc2ccc(CNC[C@@H](O)CC(=O)O)c(OCc3cccc(C#N)c3)c2)cccc1-c1ccc2c(c1)OCCO2 [Example 1121, (S)-4-(2-(3-cyanobenzyloxy)-4-(3-(2,3-dihydrobenzo[b][1,4]dioxin-6-yl)-2-methylbenzyloxy)benzylamino)-3-hydroxybutanoic acid] has an IC50 of 0.6 to 10 nM.
Cc1c(COc2cc(OCc3cncc(C#N)c3)c(CN3CCCC[C@H]3C(=O)O)cc2Br)cccc1-c1ccccc1 [Example 1298, (S)-1-(5-bromo-2-((5-cyanopyridin-3-yl)methoxy)-4-((2-methylbiphenyl-3-yl)methoxy)benzyl)piperidine-2-carboxylic acid] showed an IC50 of 0.6 to 10 nM.
